Experimental data published in patent US20260276652A1, “METHODS FOR ASSESSING PLATELET FUNCTION” (UNIVERSITY OF READING, priority 2023, published 2026).
Entries after “also recorded” stand apart in the source; their conditions may differ.

Legend:
[1] = target: T1, glycoprotein VI (GPVI) receptor (Homo sapiens, UniProt Q9HCN6); conditions: Smethurst et al.; cited from earlier work
T1 sequence (Q9HCN6 21-339): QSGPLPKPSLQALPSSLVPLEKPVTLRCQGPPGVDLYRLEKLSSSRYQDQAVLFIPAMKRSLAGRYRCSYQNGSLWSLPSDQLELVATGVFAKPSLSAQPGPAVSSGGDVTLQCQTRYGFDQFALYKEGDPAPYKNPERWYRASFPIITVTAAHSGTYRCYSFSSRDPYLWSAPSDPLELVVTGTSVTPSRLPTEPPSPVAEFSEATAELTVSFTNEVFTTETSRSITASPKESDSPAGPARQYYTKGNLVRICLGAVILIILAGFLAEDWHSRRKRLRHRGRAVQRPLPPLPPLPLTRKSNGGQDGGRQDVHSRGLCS
T1 sequence (P30273 19-86 partner): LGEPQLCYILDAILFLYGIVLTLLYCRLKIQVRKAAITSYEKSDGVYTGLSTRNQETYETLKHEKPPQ

platelets = experiment: PPAnalysis flow cytometry assay of platelet sensitivity (p-selectin exposure) to CRP-XL in patients with ischaemic heart disease; assay type: cell-based, human; conditions: for sensitivity to CRP-XL of patients receiving aspirin compared with aspirin-free patients: patients with ischaemic heart disease, student's t-test
Protocol: The flow cytometry assay measured fluorescein isothiocyanate-conjugated anti-fibrinogen antibody and PE-Cy5-conjugated anti-P-selectin antibody binding following stimulation with ADP ([…]), collagen-related peptide (CRP; […]), epinephrine ([…]), thrombin receptor activator peptide 6 (TRAP-6; […]), and U46619 ([…]) using an Accuri C6 (B D, Winnersh, UK) for cohort 1 and a Beckman-Coulter EPICS Profile XL for cohort 2, as described in supplemental Section 2 of Dunster 2021 (Dunster et al. Multiparameter phenotyping of platelet reactivity for stratification of human cohorts, Blood Adv (2021) 5(20): 4017-4030).
A Platelet Phenomic Analysis (PPAnalysis) assay was carried out described in Dunster 2021. PPAnalysis comprises a flow cytometry-based assay and bespoke software that was developed to make data analysis simple, rapid, and reproducible. The assay simultaneously measures 2 aspects of platelet activation, fibrinogen binding (a marker of αllßb3 activation) and the exposure of P-selectin on the platelet surface (a marker of a-granule secretion). The supplementary information accompanying Dunster 2021 provides step-by-step instructions for setting up and carrying out the PPAnalysis assay and data analysis.

platelets in whole blood = experiment: In vitro thrombus formation on type I collagen, whole blood perfused at arterial shear rate; assay type: cell-based, human; conditions: patients with ischaemic heart disease, 6 minutes, 1000 s^-1, student's t-test
Protocol: Thrombus formation on immobilized type I collagen was performed using the VenaFlux Platform and Vena 8Fluor+Biochips (Cellix). Channels were coated overnight at 4° C. with collagen, then blocked with 1% BSA/PBS for 1 h and replaced with PBS. Blood was collected into sodium citrate (4% w/v). Platelets in whole blood were incubated with 10 mM DiOC6 (Thermo Fisher Scientific) for 10 min. Perfusion was performed at 37° C. with an arterial shear rate of 1000 s^−1 for at least 520 seconds. Thrombus formation was visualised using a 20× magnification lens on a Nikon A1-R confocal microscope. Images were brightness corrected and converted to a binary mask with software provided auto-thresholds. Binary Mask Particles were then analysed to determine thrombus count and size.

Q: With (GPC-(GPO)10-GPCG-amide)3 [CRP-XL] as the compound, how does the “platelet agonist potency compared with non-cross-linked CRP” value [1] read?
A: The value was “more potent platelet agonist”.

Q: For `CC(=O)Oc1ccccc1C(=O)O` [aspirin], which “sensitivity to CRP-XL of patients receiving ASA” value (platelets; patients with ischaemic heart disease receiving ASA, mean ± spread, ASA free patients 7.4±0.49) is on record?
A: The value was 7.2±0.37 log g/mL.

Q: What about the “sensitivity to CRP-XL of patients receiving aspirin compared with aspirin-free patients” value (platelets) of the same compound?
A: The value was “lower sensitivity to CRP-XL”.

Q: And the “sensitivity to CRP-XL of patients receiving aspirin compared with aspirin-free patients” value (platelets; listed as ASA)?
A: Its value is “significantly lower”.

Q: And the “in vitro thrombus volume in patients with versus without aspirin” value (platelets in whole blood)?
A: Its value is “not reduced; also recorded: not significantly different”.
